Patent US20220323532A1, “COMPOSITIONS COMPRISING PLANT-DERIVED EXOSOME-LIKE NANOVESICLES OR EXOSOMES AND METHODS OF USE THEREOF” (priority 2021, published 2022)
Read-outs that look alike come from different tables or passages of the source.

Assays:
skin of human subjects [1] = assay: Primary skin irritation evaluation, single 48 hour patch; type: in vivo; details: single application, patch 48 hours; 55 subjects; positive control
Protocol: Patches remain in place for 48 hours. […] Trained skin grading laboratory personnel removed the patch and evaluated the test sites.
Whenever feasible, the same individual does the scoring of all the subjects throughout the study and is blinded to the treatment assignments and any previous scores. • 0 no reaction (negative) • 1 erythema throughout at least ¾ of patch area • 2 erythema and induration throughout at least ¾ of patch area • 3 erythema, induration and vesicles • 4 erythema, induration and bullae • D Site discontinued • Dc Subject discontinued • DcI Subject discontinued per Investigator

skin of human subjects [2] = details: repeat insult patch test; positive control
Description: To determine the irritation and sensitization (contact allergy) potential of a test material (high growth serum comprising ashwagandha exosomes/ELNs 1×10^9 or 1×10^10 after repeated application to the skin of human subjects. […]
This procedure was repeated until a series of nine (9) consecutive, 24-hour exposures had been made three (3) times a week for three (3) consecutive weeks. Prior to each reapplication, the test sites evaluated by trained laboratory personnel. […] Test sites were evaluated by trained laboratory personnel 48 and 96 hours after application. In the event of an adverse reaction, the area of erythema and edema were measured. […] Subjects were instructed to report any delayed reactions that might occur after the final reading. […]

For `CCCCCCCCCCCCOS(=O)(=O)[O-].[Na+]` [2.0% Sodium Lauryl Sulfate Solution, Sodium Lauryl Sulfate], the “subjects with a Grade 1 reaction” value (skin of human subjects [1]) was 6 subjects and the “subjects with a Grade 1 reaction” value (skin of human subjects [2]) was 6 subjects.
